The text below walks through data of ChEMBL document CHEMBL1201862, “PubChem BioAssay data set” (2004).

A word on the AC50: it is the concentration giving half of the maximal activity seen.

The structures appear in SMILES notation. Active and inactive are the calls of the source.

A short description of test [1]: cytotoxicity in HEK-293T cells, dose response, cytotoxicity control for BCR NF-kB inhibitor project, luminescence, B-cell screen hits (AID 489021).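 Note: HEK-293T cells carrying an NF-kB luciferase reporter; cells exposed to compound for about 14 hours before viability readout.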 The format is functional, cell-based.
Test [2] can be described thus: Shn3 3'UTR reporter inhibitors, dose response, cell-based, Clone20 osteoblasts, firefly luciferase, cherry-picked (AID 624132).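 Note: firefly luciferase luminescence from reporter carrying the Shn3 3'UTR in osteoblasts.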 Type of test: functional.
The target of test [3] is T1, Interleukin-8 (Homo sapiens, UniProt P10145). The test is described as follows: Dose Response confirmation of uHTS small molecule hits for cystic fibrosis induced NFkb Inhibitors in a TNFa-induced IL8 counterscreen. Type of test: functional. The settings on record: read-out: IC50_Mean. Background: A counterscreen serves to expose hits that act by an unwanted route or on another target.
T1 sequence (P10145 whole entry): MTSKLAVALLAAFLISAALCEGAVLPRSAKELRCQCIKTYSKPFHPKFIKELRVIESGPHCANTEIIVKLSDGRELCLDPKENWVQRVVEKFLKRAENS

A short description of test [4]: HepG2 cell cytotoxicity, dose response, cytotoxicity control for Shn3 inhibitor project, CellTiter-Glo, cherry-picked (AID 624134). Type of test: functional, cell-based. For orientation: ATP-based viability assays read luminescence as a measure of living cells.
For test [5], the target named is T1, Interleukin-8. The test is described as follows: Dose Response confirmation of uHTS small molecule hits for cystic fibrosis induced NFkb Inhibitors in a PAF-induced IL8 counterscreen. The settings on record: read-out: IC50_Mean. The format is functional.
Test [6] is described as follows: control 3'UTR Renilla luciferase suppression, dose response, counter-screen for Shn3 inhibitor project, cell-based, Clone20-Shn3RL, cherry-picked (AID 624133). Type of test: functional.
In test [7] the target is T2, Microphthalmia-associated transcription factor (Homo sapiens, UniProt O75030).
T2 sequence (O75030 whole entry): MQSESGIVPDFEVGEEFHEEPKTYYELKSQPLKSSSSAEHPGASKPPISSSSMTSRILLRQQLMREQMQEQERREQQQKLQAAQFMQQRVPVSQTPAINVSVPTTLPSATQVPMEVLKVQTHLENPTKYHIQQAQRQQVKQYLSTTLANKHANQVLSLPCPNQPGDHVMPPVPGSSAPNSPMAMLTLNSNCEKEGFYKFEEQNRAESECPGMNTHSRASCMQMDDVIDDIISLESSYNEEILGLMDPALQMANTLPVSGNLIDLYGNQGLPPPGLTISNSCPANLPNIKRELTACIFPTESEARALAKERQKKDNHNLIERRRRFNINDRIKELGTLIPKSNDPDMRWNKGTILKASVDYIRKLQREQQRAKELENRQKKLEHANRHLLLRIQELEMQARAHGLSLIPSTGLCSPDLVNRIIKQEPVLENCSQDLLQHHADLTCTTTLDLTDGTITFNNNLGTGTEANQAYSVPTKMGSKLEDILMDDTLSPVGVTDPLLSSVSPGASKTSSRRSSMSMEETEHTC
The test is described as follows: TRPM1 promoter luciferase signal decrease, dose response, MITF inhibitor project, cell-based, SK-MEL-5, cherry-picked, set 3 (AID 493073).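 Note: SK-MEL-5 melanoma cells with luciferase driven by the MITF target TRPM1 promoter.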 The format is functional.

Test [8] addresses Histone-lysine N-methyltransferase NSD2 (Homo sapiens, UniProt O96028). The format is biochemical.
Another test has as its target T3, Hexokinase HKDC1 (Homo sapiens, UniProt Q2TB90).
T3 sequence (Q2TB90 whole entry): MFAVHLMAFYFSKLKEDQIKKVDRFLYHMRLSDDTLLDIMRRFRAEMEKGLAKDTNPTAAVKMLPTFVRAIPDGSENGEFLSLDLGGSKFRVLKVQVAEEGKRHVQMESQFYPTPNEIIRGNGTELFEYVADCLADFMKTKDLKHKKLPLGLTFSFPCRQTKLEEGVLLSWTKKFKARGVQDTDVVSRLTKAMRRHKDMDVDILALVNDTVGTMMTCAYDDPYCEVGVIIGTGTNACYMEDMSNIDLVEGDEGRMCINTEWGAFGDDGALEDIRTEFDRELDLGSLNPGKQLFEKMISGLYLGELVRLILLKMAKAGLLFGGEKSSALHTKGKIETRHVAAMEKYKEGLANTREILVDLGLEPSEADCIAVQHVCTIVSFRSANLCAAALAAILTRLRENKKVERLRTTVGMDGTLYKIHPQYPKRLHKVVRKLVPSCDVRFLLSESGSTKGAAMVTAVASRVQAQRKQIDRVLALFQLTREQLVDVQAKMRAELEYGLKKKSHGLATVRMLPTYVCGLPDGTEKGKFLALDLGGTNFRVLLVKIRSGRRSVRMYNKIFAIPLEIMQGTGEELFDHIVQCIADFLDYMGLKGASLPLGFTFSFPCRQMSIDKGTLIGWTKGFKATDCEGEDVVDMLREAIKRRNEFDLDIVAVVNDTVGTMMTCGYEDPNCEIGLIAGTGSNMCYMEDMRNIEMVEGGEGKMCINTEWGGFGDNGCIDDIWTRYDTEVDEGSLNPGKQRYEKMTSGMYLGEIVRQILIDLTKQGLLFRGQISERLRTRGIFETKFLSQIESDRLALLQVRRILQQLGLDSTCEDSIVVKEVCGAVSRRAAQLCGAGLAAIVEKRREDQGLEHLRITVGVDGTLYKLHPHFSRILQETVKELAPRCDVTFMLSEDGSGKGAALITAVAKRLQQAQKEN
Description: HKDC1 hexokinase inhibitors, dose response, biochemical, W721R variant (AID 504729). Type of test: functional.

The nature of test [9]: AlphaScreen signal interference compounds, dose response, artefact control for ARNT-TACC3 interaction inhibitor project, biochemical, luminescence, cherry-pick (AID 651705).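 Note: AlphaScreen bead proximity signal that flags compounds interfering with the detection technology; potency reflects signal decrease which marks the compound as an assay artifact.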 Type of test: functional. For orientation: Bead proximity is the source of the signal in Alpha formats.

Sequence of Histone-lysine N-methyltransferase NSD2 (O96028 whole entry): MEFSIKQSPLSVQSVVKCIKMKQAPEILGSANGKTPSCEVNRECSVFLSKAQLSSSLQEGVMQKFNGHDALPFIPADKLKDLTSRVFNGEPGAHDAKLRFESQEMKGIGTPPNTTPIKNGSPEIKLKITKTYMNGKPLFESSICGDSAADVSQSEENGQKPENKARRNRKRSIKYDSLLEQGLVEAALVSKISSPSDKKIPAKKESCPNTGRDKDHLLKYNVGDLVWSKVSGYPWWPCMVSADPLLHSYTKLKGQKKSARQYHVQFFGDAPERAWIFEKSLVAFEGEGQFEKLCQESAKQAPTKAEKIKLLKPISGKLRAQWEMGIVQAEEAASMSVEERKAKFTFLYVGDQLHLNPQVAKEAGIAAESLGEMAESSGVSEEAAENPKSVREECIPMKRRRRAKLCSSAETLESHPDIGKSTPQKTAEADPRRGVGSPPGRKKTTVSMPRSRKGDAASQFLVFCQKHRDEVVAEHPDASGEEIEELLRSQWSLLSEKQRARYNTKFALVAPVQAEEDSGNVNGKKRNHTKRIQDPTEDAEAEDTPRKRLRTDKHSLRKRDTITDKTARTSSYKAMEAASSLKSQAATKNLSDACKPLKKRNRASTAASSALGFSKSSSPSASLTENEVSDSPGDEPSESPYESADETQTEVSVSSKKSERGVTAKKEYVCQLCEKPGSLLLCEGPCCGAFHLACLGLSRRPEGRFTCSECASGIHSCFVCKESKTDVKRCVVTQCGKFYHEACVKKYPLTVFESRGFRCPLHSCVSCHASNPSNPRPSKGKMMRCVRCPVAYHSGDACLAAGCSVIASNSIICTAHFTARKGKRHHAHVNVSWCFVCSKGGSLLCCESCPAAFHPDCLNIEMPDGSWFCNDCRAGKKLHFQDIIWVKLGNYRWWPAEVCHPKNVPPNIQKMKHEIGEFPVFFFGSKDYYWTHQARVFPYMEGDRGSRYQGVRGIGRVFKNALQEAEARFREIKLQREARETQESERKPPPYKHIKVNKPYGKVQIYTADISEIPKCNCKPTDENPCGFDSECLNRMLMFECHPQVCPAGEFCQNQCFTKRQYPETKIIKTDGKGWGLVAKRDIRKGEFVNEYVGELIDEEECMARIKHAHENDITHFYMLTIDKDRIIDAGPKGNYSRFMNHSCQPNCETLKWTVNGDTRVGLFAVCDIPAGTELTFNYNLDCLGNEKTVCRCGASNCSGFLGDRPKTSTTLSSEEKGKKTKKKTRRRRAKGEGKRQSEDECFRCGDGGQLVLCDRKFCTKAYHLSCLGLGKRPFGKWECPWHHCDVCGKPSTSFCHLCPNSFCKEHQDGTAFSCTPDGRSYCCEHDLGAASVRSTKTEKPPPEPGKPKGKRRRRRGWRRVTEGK

`CC(C)(C)C(=O)/C(=C/c1ccncc1)n1cncn1`: the values for the IC50 (in test [1]; at Interleukin-8 [3]; on Interleukin-8 [5]) were > 80 µM (inactive), 1.25 µM (active) and 0.607 µM (active), respectively. Moreover, the AC50 in test [2] was 3.27 µM (active); in test [4], 16.8 µM (active); in test [6] it was 7.23 µM (active); in [7], 6.63 µM (active).
With `NC1=CC(=O)C(=O)c2ccccc21` [4-AMINO-[1,2]NAPHTHOQUINONE], the AC50 was 1.74 µM (active) in [8] and 107 µM (active) in test [9]. On Hexokinase HKDC1, the IC50 is 34 µM (inactive).
